Laboratory results taken from patent publication US7015022B2, “Mammalian catalase-dependent oxidation processes and methods for stimulating oxidative activities” (University of Medicine & Dentistry of New Jersey, priority 2002, dated 2006).
“Also recorded” adds a separate entry of the source.

Tests used:
mammalian catalase [1] = target: T1, mammalian catalase (Bos taurus, UniProt P00432); test: Competition with AMPLEX-RED: inhibition of the AMPLEX-RED catalase oxidase reaction; assay type: biochemical, bovine; details: for kind of inhibition of the AMPLEX-RED oxidase reaction (kinetic analysis): competitive or noncompetitive; for inhibition of the AMPLEX-RED catalase oxidase activity: catalase 1 mg/ml in reaction buffer, no concentration given; for inhibition of the oxidation of AMPLEX-RED to resorufin by catalase: concentrations ranging from 0.005 mM to 0.1 mm or greater; for Ki: calculated from kinetic analysis, catalase 1 mg/ml, read-out: Ki for inhibition of the AMPLEX-RED catalase oxidation reaction
T1 construct: purified catalases obtained from a variety of sources including enzyme from mouse and bovine liver; purchased Sigma Chemical Co., St. Louis, Mo; host or cells: liver tissue (mouse and bovine named)
T1 sequence (P00432 2-527 limits assumed): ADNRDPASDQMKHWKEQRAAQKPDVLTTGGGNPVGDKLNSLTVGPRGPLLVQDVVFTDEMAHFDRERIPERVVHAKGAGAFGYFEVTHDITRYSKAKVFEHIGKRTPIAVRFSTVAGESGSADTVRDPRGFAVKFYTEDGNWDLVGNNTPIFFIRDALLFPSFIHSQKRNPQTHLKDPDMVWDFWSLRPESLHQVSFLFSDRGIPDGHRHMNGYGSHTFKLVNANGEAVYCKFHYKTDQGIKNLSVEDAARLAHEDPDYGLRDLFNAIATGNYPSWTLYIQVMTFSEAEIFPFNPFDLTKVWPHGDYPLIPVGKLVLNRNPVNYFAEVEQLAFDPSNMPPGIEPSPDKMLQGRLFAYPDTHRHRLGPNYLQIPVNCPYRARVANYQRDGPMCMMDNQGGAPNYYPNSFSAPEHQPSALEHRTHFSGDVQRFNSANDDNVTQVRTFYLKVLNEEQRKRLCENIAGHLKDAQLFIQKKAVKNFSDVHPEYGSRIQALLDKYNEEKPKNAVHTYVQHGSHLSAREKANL
Description: Catalases were purchased from Sigma Chemical Co., St. Louis, Mo. Reactions were carried out in buffer consisting of 50 mM phosphate buffer, pH 7.4 and 1.0 mg/ml of the catalase at room temperature (22° C.) in a reaction volume of 0.1 ml. […] Standard reaction mixtures contain 20 nmoles of the substrate. Detection of the fluorescent product resorufin was measured using an HTS 7000 Plus Bio Assay Reader (Perkin Elmer, Beaconsfield, Buckinghamsire, UK) using a 540 nm excitation filter and a 595 nm emission filter.

mammalian catalase [2] = target: T1, mammalian catalase; test: Oxidation of substrates by catalase oxidase activity (absorbance or fluorescence); assay type: biochemical, bovine; details: in the absence of hydrogen peroxide
Description: The oxidation of multiple substrates depicted in Table 1 with time was measured using an HTS 7000 Plus Bio Assay Reader using standard catalase reaction mixes (0.5 mg/ml catalase in 50 mM phosphate buffer, pH 7.4). Pyrogallol oxidation (1 mM) was measured by the increase in absorbance at 430 nm. Oxidation of ABTS (1 mM) was measured as the […] in absorbance at 430 nm. Oxidation of catechol (1 mM) was measured as the increase in absorbance at 420 nm. Oxidation of DCFH (5 μM) by catalase was measured as the increase in fluorescence over time with a 485 nm excitation filter and a 520 nm emission filter.

catalase = target: T2, catalase (Bos taurus, UniProt P00432); test: Accelerating catalase oxidation of DCFH-DA with UV light; assay type: biochemical; details: DCFH-DA 5 μM, catalase 1 mg/ml
T2 sequence (P00432 2-527 limits assumed): T1 sequence (P00432 2-527 limits assumed)
Description: The present invention also relates to methods for accelerating the oxidation of substrates by catalase by exposure to ultraviolet light. For purposes of the present invention, by “accelerate” or “accelerating” it is meant that the rate at which catalase oxidizes a substrate is increased when exposed to ultraviolet light as compared the rate of oxidation of the substrate by catalase in the absence of ultraviolet light. In this method, a substrate is added to mammalian catalase and the mixture is then treated with low doses of ultraviolet light to accelerate oxidation of the substrate. In a preferred embodiment of this method, the low dose of ultraviolet radiation ranges between 2.5 and 25 mJ/cm^2 at a wavelength of UVB light that is between 290 and 320 nm. […] For example, the substrate DCFH-DA was added to a reaction mixture containing catalase in sodium phosphate buffer. The samples were then exposed to increasing doses of ultraviolet light (UVB, 290–320 nm).
Samples were then exposed to increasing doses of ultraviolet light (UVB, 290–320 nm) emitted from a bank of two FS20 UVB light bulbs (Sylvania).

Molecule	kind of inhibition of the AMPLEX-RED oxidase reaction (kinetic analysis) (mammalian catalase [1])	inhibition of the oxidation of AMPLEX-RED to resorufin by catalase (mammalian catalase [1])	further results
5-amino-2,3-dihydro-1,4-phthalazine-dione (luminol)	competitive inhibitor	–	–
O=C(OC1Cc2c(O)cc(O)cc2OC1c1cc(O)c(O)c(O)c1)c1cc(O)c(O)c(O)c1 (single isomer, unassigned; (-)) [EGCG, (−)-epigallocatechin-3-gallate]	–	–	substrate for the catalase oxidase reaction (mammalian catalase [2]): substrate
Nc1nc[nH]n1 [3-amino-1,2,4-triazole]	–	–	inhibition of the AMPLEX-RED catalase oxidase activity (mammalian catalase [1]): inhibits
Cc1c(N(C)C)c(=O)n(-c2ccccc2)n1C [4-dimethylaminoantipyrine]	non-competitive inhibitors	inhibition	kind of inhibition of the AMPLEX-RED oxidase reaction (kinetic analysis) (mammalian catalase [1]; listed as aminopyrene): noncompetitive inhibitor
CCn1/c(=N\N=c2\sc3cc(S(=O)(=O)O)ccc3n2CC)sc2cc(S(=O)(=O)O)ccc21.N.N [ABTS, 2,2′-azino-bis[3-ethylbenzthiazoline-6-sulfonic acid]]	competitive inhibitors	inhibition	–
Nc1ccc(-c2ccc(N)c(N)c2)cc1N [DAB, 3,3′-diaminobenzidine]	competitive inhibitors	inhibition	inhibition of the AMPLEX-RED catalase oxidase activity (mammalian catalase [1]): inhibitors
CC(=O)Oc1cc2c(cc1Cl)C(c1ccccc1C(=O)O)c1cc(Cl)c(OC(C)=O)cc1O2 [DCFH-DA, 2′,7′-dichlorodihydrofluoresceindiacetate]	competitive inhibitors	inhibition	Ki (mammalian catalase [1]): 31.6 µM; oxidation of DCFH-DA by catalase (increase in fluorescence) (catalase; absence of UVB light): Oxidation of DCFH-DA is observed; also recorded: Relatively low levels of oxidation; oxidation of DCFH-DA by catalase (increase in fluorescence) (catalase; with UVB light 290–320 nm, increasing doses): marked enhancement
Oc1ccccc1O [DHB, 1,2-dihydroxybenzene(catechol)]	competitive inhibitors	inhibition	–
COc1cc(-c2ccc(N)c(OC)c2)ccc1N [DMB, 3,3′-dimethoxybenzidine]	competitive inhibitors	inhibition	–
COc1cc(/C=C/C(=O)O)ccc1O [HMCA, 4-hydroxy-3-methoxycinnamicacid (ferulic acid)]	competitive inhibitors	inhibition	substrate for the catalase oxidase reaction (mammalian catalase [2]): substrate
Oc1cccc(O)c1O [pyrogallol, 1,2,3-trihydroxybenzene(pyrogallol)]	competitive inhibitors	inhibition	Ki (mammalian catalase [1]): 1680 µM
